Data taken from US9371274B2, “Compound having read-through activity” (The University of Tokyo, priority 2011, dated 2016).
Entries after “also recorded” stand apart in the source; their conditions may differ.

Test system: reporter gene with premature stop codon (TGA) in COS-7 cells
Assay: In vitro read-through activity, COS-7 cells transfected with β-galactosidase/luciferase reporter gene
Type: cell-based, African green monkey
Settings: COS-7, TGA reporter, compared with negamycin
Description: African green monkey SV40-transformed kidney fibroblast cell line (COS-7) was sown in 100×20 mm cell culture dishes manufactured by Falcon and cultured at 37° C. in 5% CO2. Fifty milliliters of fetal bovine serum (FBS) was added to 500 mL of D-MEM (containing high glucose, L-glutamine, and phenol red) manufactured by Wako Pure Chemical Industries Ltd., and culture broth prepared to adjust to 10% FBS was used as the culture broth. (Referred to hereinafter as culture broth.)
The Reporter Lysis Buffer 5×, assay 2× buffer, 1 M Na2CO3, and standard used in creation of the calibration curve referred to hereinafter are included in the β-Galactosidase Enzyme Assay System with Reporter Lysis Buffer manufactured by Promega.
COS-7 cells (8.0×10^3 cells/well) were seeded by continuous dispensing of 100 μL each into flat-bottom 96-well plates (Costar (registered trade mark) 3596) manufactured by Corning and incubated for 15-16 hours at 37° C.
A quantity of 4 μL/well of DNA solution prepared in a ratio of 1.32 μL (2 μg) of reporter gene (a construct obtained by linking a β-galactosidase gene and a luciferase gene and inserting a premature stop codon (TGA) at their juncture), 100 μL of OPTI-MEM (registered trade mark) I (Reduced Serum Medium 1×) manufactured by Invitrogen, and 4 μL of FuGENE (registered trade mark) HD Transfection Reagent manufactured by Roche was added to the solution and incubated for 10-11 hours at 37° C.
The entire culture broth was aspirated, and the compound to be evaluated was prepared to adjust to 200 μM by culture broth and added by continuously dispensing 200 μL/well. 100 μM and 50 μM were also prepared in the same way and added by continuously dispensing 200 μL each. Incubation was carried out for 48 hours at 37° C. after addition.
After 48 hours had elapsed, the entire culture broth in the well was aspirated and washed twice with PBS. The Reporter Lysis Buffer 5× was then diluted by MilliQ, and a solution prepared to adjust to Reporter Lysis Buffer l× was added by continuously dispensing 100 μL each and allowed to stand for 15 minutes at room temperature. The contents of each well were recovered thereafter, and the entire amount was transferred to Nunc microwell plates (V bottom) manufactured by Thermo Fisher Scientific and centrifuged (1800 rpm, 15 minutes). Eighty-five microliters of this lysate was transferred to Nunc low-binding 96-well plates (flat bottom) clear manufactured by Thermo Fisher Scientific.
Using Nunc low-binding 96-well plates (flat bottom) clear manufactured by Thermo Fisher Scientific, 30 μL/well of Reporter Lysis Buffer l× was added by dispensing continuously, followed by addition of 20 μL of the recovered lysate to make 50 μL. Separately, the standard required for creation of a calibration curve was added to make 0, 1, 2, 3, 4, and 5 mU according to the protocol of the β-Galactosidase Enzyme Assay System with Reporter Lysis Buffer manufactured by Promega. A quantity of 50 μL of Assay 2× buffer was added to each of these wells and incubated for 25 minutes at room temperature. A quantity of 150 μL/well of 1M Na2CO3, a reaction-stopping solution, was added, and the […] (420 nm, reference […]) was measured immediately using an absorption/fluorescence microplate reader Tecan Safire manufactured by Tecan. A calibration curve was created from the absorbance of the standard, and the absorbance converted to mU according to this calibration curve was taken as the activity value.
A quantity of 50 μL/well of the recovered lysate was added to 96-well white plates (Costar (registered trade mark) 3912) manufactured by Corning and incubated for five minutes at room temperature after adding 100 μL of PicaGene (registered trade mark) manufactured by Toyo Ink Co., Ltd. After five minutes, the emission intensity was measured by a Berthold luminometer MicroLumat Plus LB96V manufactured by Berthold Japan. […]

Row | Compound | read-through activity / read-through efficiency (FIG. 1-3, in words)
1 | CN(CC(=O)O)NC(=O)C[C@@H](N)CCCN [Example Compound 2, (S)-2-(2-(3,6-diaminohexanoyl)-1-methylhydrazinyl)acetic acid] | remarkably high read-through efficiency in comparison even to negamycin
2 | CN(CC(=O)O)NC(=O)C[C@@H](N)CCN [Example Compound 3, (S)-2-(2-(3,5-diaminopentanoyl)-1-methylhydrazinyl)acetic acid] | remarkably high read-through efficiency in comparison even to negamycin; also recorded: read-through efficiency equal to or greater than that of negamycin
3 | CCOC(=O)CN(C)NC(=O)C[C@@H](N)CCCN [Example Compound 5, (S)-ethyl 2-(2-(3,6-diaminohexanoyl)-1-methylhydrazinyl)acetate] | remarkably high read-through efficiency in comparison even to negamycin
4 | CC(C)C[C@H](N)C(=O)N[C@@H](CCCN)CC(=O)NN(C)CC(=O)O [Example Compound 7, 2-(2-((S)-6-amino-3-((S)-2-amino-4-methylpentanamide)hexanoyl)-1-methylhydrazinyl)acetic acid] | remarkably high read-through efficiency in comparison even to negamycin

Same assay, conditions: same method as Example 16; luciferase activity divided by β-galactosidase activity; 48 hours incubation; concentration for these values not given

Row | Compound | Read-through Activity
5 | CN(CC(=O)O)NC(=O)C[C@H](CCCN)NC(=O)[C@@H](N)Cc1ccccc1 [compound 14] | 2.13 ± 0.08
6 | CCOC(=O)N(CC(=O)O)NC(=O)C[C@@H](N)CCCN [compound 15] | 1.92 ± 0.21
7 | CC(C)[C@H](N)C(=O)N[C@@H](CCCN)CC(=O)NN(C)CC(=O)O [compound 16] | 1.87 ± 0.29
8 | CN(CC(=O)O)NC(=O)C[C@H](CCCN)NC(=O)CN [compound 17] | 2.10 ± 0.90
9 | CC(C)C[C@@H](N)C(=O)N[C@@H](CCCN)CC(=O)NN(C)CC(=O)O [compound 18] | 1.30 ± 0.09
10 | CN(CC(=O)O)NC(=O)C[C@H](CCCN)NC(=O)[C@@H](N)Cc1ccccc1 [compound 19] | 3.25 ± 0.07
11 | CN(CC(=O)OCc1ccccc1Br)NC(=O)C[C@@H](N)CCN [compound 20] | 7.07 ± 0.45
12 | CN(CC(=O)OCc1ccc(Br)cc1)NC(=O)C[C@@H](N)CCN [compound 22] | 5.18 ± 0.04
13 | CC(C)C[C@@H](N)C(=O)N[C@@H](CCCN)CC(=O)NN(C)CC(=O)O [compound 23] | 5.65 ± 0.09
14 | CN(CC(=O)OCc1ccccc1)NC(=O)C[C@@H](N)CCN [compound 24] | 3.89 ± 0.16
15 | CN(CC(=O)OCc1ccccc1Br)NC(=O)C[C@@H](N)CCN [compound 25] | 1.26 ± 0.07
16 | CCCNCC[C@H](N)CC(=O)NN(C)CC(=O)O [compound 26] | 1.44 ± 0.04
17 | CCCCCNCC[C@H](N)CC(=O)NN(C)CC(=O)O [compound 27] | 1.64 ± 0.12
18 | CN(CC(=O)O)NC(=O)C[C@@H](N)CCNCc1ccccc1 [compound 28] | 1.40 ± 0.04
19 | CN(CC(=O)O)NC(=O)C[C@@H](N)CCNC(=O)CN [compound 29] | 2.84 ± 0.06
20 | CN(CC(=O)O)NC(=O)C[C@@H](N)CCNS(C)(=O)=O [compound 32] | 1.24 ± 0.09

Row | Compound | Read-through Activity
21 | CN(CC(=O)O)NC(=O)C[C@@H](N)CCNCc1ccccc1 [compound 33] | 2.34 ± 0.11
22 | CN(CC(=O)O)NC(=O)C[C@@H](N)CCNC(=O)CN [compound 34] | 2.00 ± 0.13
23 | CC(C)[C@H](N)C(=O)N[C@@H](CCN)CC(=O)NN(C)CC(=O)O [compound 35] | 3.09 ± 0.62
24 | C[C@H](N)C(=O)N[C@@H](CCN)CC(=O)NN(C)CC(=O)O [compound 36] | 1.92 ± 0.40
25 | CN(CC(=O)O)NC(=O)C[C@H](CCN)NC(=O)CN [compound 37] | 2.78 ± 0.67
26 | CC[C@H](C)[C@H](N)C(=O)N[C@@H](CCN)CC(=O)NN(C)CC(=O)O [compound 38] | 1.75 ± 0.19
27 | CN(CC(=O)O)NC(=O)C[C@H](CCN)NC(=O)[C@@H](N)Cc1ccc(O)cc1 [compound 39] | 1.63 ± 0.14
28 | CN(CC(=O)O)NC(=O)C[C@H](CCN)NC(=O)[C@@H](N)CCN [compound 40] | 1.50 ± 0.05
29 | C[C@H](N)C(=O)N[C@@H](CCN)CC(=O)NN(C)CC(=O)O [compound 41] | 1.57 ± 0.05
30 | CN(CC(=O)O)NC(=O)C[C@H](CCN)NC(=O)[C@@H](N)CCCCN [compound 42] | 2.14 ± 0.18
31 | CC[C@H](C)[C@H](N)C(=O)N[C@@H](CCN)CC(=O)NN(C)CC(=O)O [compound 43] | 2.20 ± 0.05
32 | CN(CC(=O)O)NC(=O)C[C@H](CCN)NC(=O)[C@@H](N)CC(=O)O [compound 44] | 1.58 ± 0.05
33 | CN(CC(=O)O)NC(=O)C[C@H](CCN)NC(=O)[C@@H](N)CCN [compound 45] | 1.65 ± 0.18
34 | CN(CC(=O)O)NC(=O)C[C@H](CCN)NC(=O)[C@@H](N)CCCN [compound 46] | 1.60 ± 0.13
35 | CN(CC(=O)O)NC(=O)C[C@H](N)C[C@@H](O)CN [negamycin, methylhydrazinoacetic acid-linked δ-hydroxy-β-lysine, reference compound] | 1.53±0.04

Test system: transgenic mice with luciferase gene and β-galactosidase gene as reporter genes
Assay: In vivo read-through activity in reporter transgenic mice (rectus femoris and gastrosoleus muscle)
Settings: subcutaneous, every 24 hours for seven consecutive days; muscle excised on the eighth day
Description: Transgenic mice were produced by introducing a luciferase gene and […] gene as reporter genes by the method described in International Publication WO2008/004610 pamphlet.
A physiological saline solution of example compound 2 synthesized in Example 1 was administered subcutaneously to the abdomen of the transgenic mice produced every 24 hours for seven consecutive days. On the eighth day, the rectus femoris and the gastrosoleus muscle of the mice were excised. After mincing by ophthalmological scissors, three times the wet weight of Reporter Lysis Buffer (Promega, US) was added, and the tissue was disrupted by Physcotron (Niti-on Co., Ltd.). After freezing overnight and thawing, the supernatant obtained by centrifugation was introduced into a 96-well plate, and the β-galactosidase activity was measured by a Beta-Glo Assay System (Promega, US) and the luciferase activity was measured by a Bright-Glo Assay System (Promega, US). A luminometer (ATTO) was used in measurement. The luciferase activity value was divided by the […] activity value, and the value multiplied by 10^4 was taken as the read-through efficiency.

Row | Compound | read-through activity in vivo (FIG. 4, in words)
36 | CN(CC(=O)O)NC(=O)C[C@@H](N)CCCN [Example Compound 2, (S)-2-(2-(3,6-diaminohexanoyl)-1-methylhydrazinyl)acetic acid] | high read-through activity even in comparison to gentamicin and 5-epi-negamycin

Test system: not given
Assay: not given
Settings: prior knowledge; cited from earlier work

Row | Compound | antimicrobial activity (in words)
37 | CN(CC(=O)O)NC(=O)CC(N)CCCN (stereo not drawn) [3-Epi-5-dehydroxynegamycin] | weak antimicrobial activity
38 | CC(C)C[C@H](N)C(=O)N[C@@H](CC(=O)CN)CC(=O)NN(C)CC(=O)O [3-N-leucyl-3-epi-5-dehydronegamycin] | no antimicrobial activity
39 | CN(CC(=O)O)NC(=O)C[C@H](N)C[C@@H](O)CN [negamycin, methylhydrazinoacetic acid-linked δ-hydroxy-β-lysine, reference compound] | high antimicrobial activity

Test system: premature stop codon
Assay: Read-through activity stated in the description, test not specified
Settings: statement of the inventors' finding, no test named

Row | Compound | read-through activity (in words)
40 | CC(C)C[C@H](N)C(=O)N[C@@H](CC(=O)CN)CC(=O)NN(C)CC(=O)O [3-N-leucyl-3-epi-5-dehydronegamycin] | potent read-through activity
41 | CN(CC(=O)O)NC(=O)CC(N)CC(O)CN (stereo not drawn) [5-epi-negamycin] | has read-through activity
